Test results taken from ChEMBL document CHEMBL3792365, “Dioxol and dihydrodioxin analogs of 2- and 3-phenylacetonitriles as potent anti-cancer agents with nanomolar activity against a variety of human cancer cells” (2016).

Columns and labels:
Assay type in all cases: functional
[1] = Growth inhibition of human SF539 cells at 10 uM after 48 hrs by sulforhodamine B assay; conditions: SF-539, 48 h, values are per cent of control
NCI-H460 = assay: Growth inhibition of human NCI-H460 cells at 10 uM after 48 hrs by sulforhodamine B assay; conditions: NCI-H460, 48 h, values are per cent of control
[2] = Growth inhibition of human SF268 cells at 10 uM after 48 hrs by sulforhodamine B assay; conditions: SF-268, 48 h, values are per cent of control
T47D = assay: Growth inhibition of human T47D cells at 10 uM after 48 hrs by sulforhodamine B assay; conditions: values are per cent of control
SK-MEL-2 = assay: Growth inhibition of human SK-MEL-2 cells at 10 uM after 48 hrs by sulforhodamine B assay; conditions: SK-MEL-2, 48 h, values are per cent of control
786-0 = assay: Growth inhibition of human 786-0 cells at 10 uM after 48 hrs by sulforhodamine B assay; conditions: 786-0, 48 h, values are per cent of control
SN12C = assay: Growth inhibition of human SN12C cells at 10 uM after 48 hrs by sulforhodamine B assay; conditions: values are per cent of control
MDA-MB-231 = assay: Growth inhibition of human MDA-MB-231 cells at 10 uM after 48 hrs by sulforhodamine B assay; conditions: MDA-MB-231, 48 h, values are per cent of control
HT-29 = assay: Growth inhibition of human HT-29 cells at 10 uM after 48 hrs by sulforhodamine B assay; conditions: HT-29, 48 h, values are per cent of control
[3] = Growth inhibition of human SF295 cells at 10 uM after 48 hrs by sulforhodamine B assay; conditions: SF-295, 48 h, values are per cent of control
[4] = Growth inhibition of human Caki1 cells at 10 uM after 48 hrs by sulforhodamine B assay; conditions: CAKI-1, 48 h, values are per cent of control
SK-MEL-28 = assay: Growth inhibition of human SK-MEL-28 cells at 10 uM after 48 hrs by sulforhodamine B assay; conditions: SK-MEL-28, 48 h, values are per cent of control
NCI-H23 = assay: Growth inhibition of human NCI-H23 cells at 10 uM after 48 hrs by sulforhodamine B assay; conditions: NCI-H23, 48 h, values are per cent of control
ACHN = assay: Growth inhibition of human ACHN cells at 10 uM after 48 hrs by sulforhodamine B assay; conditions: values are per cent of control
[5] = Growth inhibition of human HCT15 cells at 10 uM after 48 hrs by sulforhodamine B assay; conditions: HCT-15, 48 h, values are per cent of control
[6] = Growth inhibition of human NCI-ADR-RES cells at 10 uM after 48 hrs by sulforhodamine B assay; conditions: values are per cent of control
A498 = assay: Growth inhibition of human A498 cells at 10 uM after 48 hrs by sulforhodamine B assay; conditions: A498, 48 h, values are per cent of control
[7] = Growth inhibition of human OVCAR5 cells at 10 uM after 48 hrs by sulforhodamine B assay; conditions: OVCAR-5, 48 h, values are per cent of control
[8] = Growth inhibition of human DU145 cells at 10 uM after 48 hrs by sulforhodamine B assay; conditions: DU-145, 48 h, values are per cent of control
[9] = Growth inhibition of human LOXIMVI cells at 10 uM after 48 hrs by sulforhodamine B assay; conditions: LOX IMVI, values are per cent of control
K562 = assay: Growth inhibition of human K562 cells at 10 uM after 48 hrs by sulforhodamine B assay; conditions: K562, 48 h, values are per cent of control
[10] = Growth inhibition of human SW620 cells at 10 uM after 48 hrs by sulforhodamine B assay; conditions: SW-620, 48 h, values are per cent of control
[11] = Growth inhibition of human HCT116 cells at 10 uM after 48 hrs by sulforhodamine B assay; conditions: HCT-116, 48 h, values are per cent of control
[12] = Growth inhibition of human SKOV3 cells at 10 uM after 48 hrs by sulforhodamine B assay; conditions: SK-OV-3, 48 h, values are per cent of control
NCI-H322M = assay: Growth inhibition of human NCI-H322M cells at 10 uM after 48 hrs by sulforhodamine B assay; conditions: values are per cent of control
[13] = Growth inhibition of human SNB75 cells at 10 uM after 48 hrs by sulforhodamine B assay; conditions: SNB-75, 48 h, values are per cent of control
[14] = Growth inhibition of human RXF393 cells at 10 uM after 48 hrs by sulforhodamine B assay; conditions: RXF 393, 48 h, values are per cent of control
A549 = assay: Growth inhibition of human A549/ATCC cells at 10 uM after 48 hrs by sulforhodamine B assay; conditions: A549, 48 h, values are per cent of control
[15] = Growth inhibition of human IGROV1 cells at 10 uM after 48 hrs by sulforhodamine B assay; conditions: IGROV-1, 48 h, values are per cent of control
M14 = assay: Growth inhibition of human M14 cells at 10 uM after 48 hrs by sulforhodamine B assay; conditions: M14, 48 h, values are per cent of control
[16] = Growth inhibition of human TK10 cells at 10 uM after 48 hrs by sulforhodamine B assay; conditions: TK-10, 48 h, values are per cent of control
[17] = Growth inhibition of human OVCAR8 cells at 10 uM after 48 hrs by sulforhodamine B assay; conditions: OVCAR-8, 48 h, values are per cent of control
[18] = Growth inhibition of human UACC62 cells at 10 uM after 48 hrs by sulforhodamine B assay; conditions: UACC-62, 48 h, values are per cent of control
[19] = Growth inhibition of human HCC2998 cells at 10 uM after 48 hrs by sulforhodamine B assay; conditions: HCC 2998, 48 h, values are per cent of control
[20] = Growth inhibition of human COLO205 cells at 10 uM after 48 hrs by sulforhodamine B assay; conditions: COLO 205, 48 h, values are per cent of control
NCI-H522 = assay: Growth inhibition of human NCI-H522 cells at 10 uM after 48 hrs by sulforhodamine B assay; conditions: NCI-H522, 48 h, values are per cent of control
[21] = Growth inhibition of human Hs 578T cells at 10 uM after 48 hrs by sulforhodamine B assay; conditions: values are per cent of control
[22] = Growth inhibition of human UO31 cells at 10 uM after 48 hrs by sulforhodamine B assay; conditions: UO-31, 48 h, values are per cent of control
SK-MEL-5 = assay: Growth inhibition of human SK-MEL-5 cells at 10 uM after 48 hrs by sulforhodamine B assay; conditions: SK-MEL-5, 48 h, values are per cent of control
[23] = Growth inhibition of human OVCAR4 cells at 10 uM after 48 hrs by sulforhodamine B assay; conditions: OVCAR-4, 48 h, values are per cent of control

Row | SMILES | growth, % of control at 10 µM [1] [%] | growth, % of control at 10 µM (NCI-H460) [%] | growth, % of control at 10 µM [2] [%] | growth, % of control at 10 µM (T47D) [%] | growth, % of control at 10 µM (SK-MEL-2) [%] | growth, % of control at 10 µM (786-0) [%] | growth, % of control at 10 µM (SN12C) [%] | growth, % of control at 10 µM (MDA-MB-231) [%] | growth, % of control at 10 µM (HT-29) [%] | growth, % of control at 10 µM [3] [%] | growth, % of control at 10 µM [4] [%] | growth, % of control at 10 µM (SK-MEL-28) [%] | growth, % of control at 10 µM (NCI-H23) [%] | growth, % of control at 10 µM (ACHN) [%] | growth, % of control at 10 µM [5] [%] | growth, % of control at 10 µM [6] [%] | growth, % of control at 10 µM (A498) [%] | growth, % of control at 10 µM [7] [%] | growth, % of control at 10 µM [8] [%] | growth, % of control at 10 µM [9] [%] | other results
1 | N#C/C(=C\c1cc2ccccc2s1)c1ccc2c(c1)OCO2 | -10.1 | 9.7 | 23.8 | 70.4 | 29.2 | 44.7 | 25.3 | 24.3 | 5 | 2.9 | 41.2 | 60.6 | 31.1 | 38.8 | 20.4 | -1.9 | -7.5 | 50.4 | 5.1 | 19.9 | growth, % of control at 10 µM (K562): 18.8%; growth, % of control at 10 µM [10]: 21%; growth, % of control at 10 µM [11]: 11.6%; growth, % of control at 10 µM [12]: 20.7%; growth, % of control at 10 µM (NCI-H322M): 40.9%; growth, % of control at 10 µM [13]: 0.5%; growth, % of control at 10 µM [14]: -2.6%; growth, % of control at 10 µM (A549): 17.2%; growth, % of control at 10 µM [15]: 34.3%; growth, % of control at 10 µM (M14): 20.6%; growth, % of control at 10 µM [16]: 42.7%; growth, % of control at 10 µM [17]: 14%; growth, % of control at 10 µM [18]: 24%; growth, % of control at 10 µM [19]: 6.4%; growth, % of control at 10 µM [20]: -33.9%; growth, % of control at 10 µM (NCI-H522): -20.5%; growth, % of control at 10 µM [21]: -5.4%; growth, % of control at 10 µM [22]: 34.9%; growth, % of control at 10 µM (SK-MEL-5): 16.6%; growth, % of control at 10 µM [23]: 60.2%
2 | COc1ccc(/C=C(\C#N)c2ccc3c(c2)OCO3)cn1 | 83.1 | 95.2 | 91 | 81 | 93.2 | 107 | 92.6 | 75.6 | 63.8 | 89.3 | 75.3 | 95.1 | 93.7 | 93.4 | 78 | 86 | 70.8 | 95 | 97.4 | 95.6 | growth, % of control at 10 µM (K562): 64.2%; growth, % of control at 10 µM [10]: 86.1%; growth, % of control at 10 µM [11]: 82.6%; growth, % of control at 10 µM [12]: 83.1%; growth, % of control at 10 µM (NCI-H322M): 98.3%; growth, % of control at 10 µM [13]: 57%; growth, % of control at 10 µM [14]: 86.5%; growth, % of control at 10 µM (A549): 77.4%; growth, % of control at 10 µM [15]: 90.6%; growth, % of control at 10 µM (M14): 91.1%; growth, % of control at 10 µM [16]: 80.4%; growth, % of control at 10 µM [17]: 90.1%; growth, % of control at 10 µM [18]: 79.9%; growth, % of control at 10 µM [19]: 93.2%; growth, % of control at 10 µM [20]: 97.6%; growth, % of control at 10 µM (NCI-H522): 79.8%; growth, % of control at 10 µM [21]: 101%; growth, % of control at 10 µM [22]: 82.3%; growth, % of control at 10 µM (SK-MEL-5): 84.1%; growth, % of control at 10 µM [23]: 81.6%
